Laboratory results from ChEMBL document CHEMBL1146522, “Two new xanthone derivatives from the algicolous marine fungus Wardomyces anomalus” (2003).
Active and inactive are the calls of the source. The rule behind the calls is not given here.

Legend:
[1] = test system: Radical scavenging activity; assay: Antioxidant activity assessed as DPPH radical scavenging activity at 100 ug/mL; assay type: functional
Escherichia coli = assay: Antibacterial activity against Escherichia coli 50 ug/disk by agar diffusion method; assay type: functional, organism-based
[Chlorella] fusca = Antimicrobial activity against Chlorella fusca 50 ug/disk by agar diffusion method; assay type: functional, organism-based; conditions: Scenedesmus fuscus
Priestia megaterium = assay: Antibacterial activity against Bacillus megaterium 50 ug/disk by agar diffusion method; assay type: functional
[2] = biological target: Human immunodeficiency virus type 1 reverse transcriptase (Human immunodeficiency virus 1) (UniProt Q72547); assay: Inhibition of HIV1 reverse transcriptase assessed as residual enzyme activity at 66 ug/mL
Microbotryum violaceum = assay: Antifungal activity against Microbotryum violaceum 50 ug/disk by agar diffusion method; assay type: functional
Mycotypha microspora = assay: Antifungal activity against Mycotypha microspora 50 ug/disk by agar diffusion method; assay type: functional, organism-based
[3] = test system: Aspergillus pseudoglaucus; assay: Antifungal activity against Eurotium repens 50 ug/disk by agar diffusion method; assay type: functional
[4] = Antioxidant activity assessed as inhibition of peroxidation of linolenic acid at 37 ug/mL by TBARS assay; assay type: functional
[5] = biological target: Tyrosine-protein kinase Lck (Homo sapiens) (UniProt P06239); assay: Inhibition of p56-LCK assessed as residual enzyme activity at 200 ug/mL
Tyrosine-protein kinase Lck (Homo sapiens), sequence (P06239 2-509 limits assumed): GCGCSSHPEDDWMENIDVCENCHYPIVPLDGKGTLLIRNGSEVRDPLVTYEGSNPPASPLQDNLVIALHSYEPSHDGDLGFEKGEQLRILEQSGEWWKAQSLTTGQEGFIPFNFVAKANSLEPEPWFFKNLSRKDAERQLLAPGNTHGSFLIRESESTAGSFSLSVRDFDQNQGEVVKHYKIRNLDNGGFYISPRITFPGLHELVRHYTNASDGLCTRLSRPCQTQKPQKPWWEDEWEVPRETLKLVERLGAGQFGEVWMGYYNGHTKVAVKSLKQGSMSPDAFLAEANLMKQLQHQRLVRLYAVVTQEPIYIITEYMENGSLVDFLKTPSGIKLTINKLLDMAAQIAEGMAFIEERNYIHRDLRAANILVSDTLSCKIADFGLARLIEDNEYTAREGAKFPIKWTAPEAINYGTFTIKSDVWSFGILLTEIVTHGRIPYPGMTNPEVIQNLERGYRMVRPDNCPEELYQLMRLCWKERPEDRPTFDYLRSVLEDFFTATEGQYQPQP

[6] = test system: Radical scavenging activity; assay: Antioxidant activity assessed as DPPH radical scavenging activity at 50 ug/mL; assay type: functional
[7] = test system: Radical scavenging activity; assay: Antioxidant activity assessed as DPPH radical scavenging activity at 500 ug/mL; assay type: functional
[8] = Antioxidant activity assessed as inhibition of peroxidation of linolenic acid at 7.4 ug/mL by TBARS assay; assay type: functional
[9] = test system: Radical scavenging activity; assay: Antioxidant activity assessed as DPPH radical scavenging activity at 25 ug/mL; assay type: functional

| Activity [2] | Activity [5] | SMILES | Activity [1] | Activity (Escherichia coli) | Activity ([Chlorella] fusca) | Activity (Priestia megaterium) | Activity (Microbotryum violaceum) | Activity (Mycotypha microspora) | Activity [3] | inhibition [4] | Activity [6] | Activity [7] | inhibition [8] | Activity [9] | inhibition zone (IZ) (Priestia megaterium) | inhibition zone (IZ) [3] | inhibition zone (IZ) (Microbotryum violaceum) |
| --- | --- | --- | --- | --- | --- | --- | --- | --- | --- | --- | --- | --- | --- | --- | --- | --- | --- |
| 98.3% | 0% | O=C(O)c1ccc(CO)o1 | 87.7% | inactive | inactive | inactive | inactive | inactive | inactive | 7.4% | 53.4% | 97% | 2.6% | 30.7% |  |  |  |
| 82.9% | 0% | Cc1cc(O)cc2oc3cc(O)cc(O)c3c(=O)c12 [NORLICHEXANTHONE] | 25.3% |  | inactive |  |  |  |  |  | 12.9% | 90.6% | -7.4% | 6.2% | 1 mm | 1 mm |  |
|  |  | Cc1cc(C(C)(C)C)c(O)c(C(C)(C)C)c1 | 89.1% |  |  |  |  |  |  | 48.5% | 83.1% | 87.8% | 42.8% | 73.4% |  |  |  |
| 82.2% | 0% | Cc1c(O)c(O)cc2oc3cc(O)cc(O)c3c(=O)c12 [ANOMALIN A] | 95.2% | inactive | inactive | inactive |  |  |  | 37% | 94.8% | 95.4% | 17% | 94.7% |  |  | 1 mm |
